Peptide text beside a SMILES is read from it. * marks the point of attachment. Cbz = O=C(OCc1ccccc1)*; CH2F = FC*
What was measured:
BIRC2 = format: cell-based, human
[1] = system: PARP cleavage in HeLa cells; format: cell-based, human; settings: NAA10 RNAi 72 hours, Z-VAD-FMK 40 μM, anti-PARP immunoblot
XIAP = format: biochemical, human
[2] = system: IAPs (BIRC2, BIRC3, XIAP, BIRC6); format: binding, human
hGID/CTLH complex = format: binding, human; settings: peptide on streptavidin beads, HeLa lysate, quantitative MS

Compound	Ubiquitination of streptavidin-bound peptide by XIAP (anti-ubiquitin immunoblot) (XIAP)	IAP enrichment in peptide pull-down, Nt-free versus Nt-Ac peptide [2]	other results
CN[C@@H](C)C(=O)N[C@H](C(=O)N1CCC[C@H]1c1nc(C(=O)c2ccc(F)cc2)cs1)C1CCCCC1 [LCL161]	–	–	BIRC2 levels (BIRC2): IAP depletion
COC(=O)C[C@H](NC(=O)[C@H](C)NC(=O)[C@@H](NC(=O)OCc1ccccc1)C(C)C)C(=O)CF [Z-VAD, Benzyloxycarbonyl-Val-Ala-Asp-fluoromethyl ketone] (Cbz-Val-Ala-Asp(OMe)-CH2F)	–	–	PARP cleavage induced by NatA RNAi [1]: inhibited
Ac or H-AAAGAAATHLKK-K-(Biotin)-NH2 [PIGS Nt-Ac biotinylated peptide]	not ubiquitinated	–	–
Ac or H-AQFAFESDLHSLLQL-PEG-K(Biotin)-CONH2 [CDC20 Nt-Ac biotinylated peptide]	–	no enrichment	–
H-AAAGAAATHLKK-K-(Biotin)-NH2 [PIGS Nt-free biotinylated peptide]	not ubiquitinated	no IAP enrichment	–
H-AAPEEHDSPTKK-K-(Biotin)-NH2 [DDX47 Nt-free biotinylated peptide]	strongly ubiquitinated	identified IAPs as binding partners	–
H-AAPWRRWPTGKK-K-(Biotin)-NH2 [TMEM223 Nt-free biotinylated peptide]	–	identified IAPs as binding partners	–
H-AISSSSCELPLVAVF-PEG-K(Biotin)-CONH2 [NIT1 Nt-free biotinylated peptide]	–	strongly enriched	–
H-APPSVFAEVPQAQPV-PEG-K(Biotin)-CONH2 [GOT1 Nt-free biotinylated peptide]	–	no IAP enrichment	–
H-AQFAFESDLHSLLQL-PEG-K(Biotin)-CONH2 [CDC20 Nt-free biotinylated peptide]	–	robust interactions	–
H-ASVGECPAPVKK-K-(Biotin)-NH2 [ATP5J2 Nt-free biotinylated peptide]	–	identified IAPs as binding partners	–
H-ATPFQEGLRTFKKK-K(Biotin)-NH2 [CASP9 Nt-free biotinylated peptide, reference compound]	levels that were comparable	preferential binding partners	–
H-AVGKNKRLTKK-K-FITC [RPS3A Nt-free peptide]	–	no IAP enrichment	–
H-AVPAALILREKK-K(Biotin)-NH2 [COMMD10 Nt-free biotinylated peptide]	strongly ubiquitinated	strongly enriched	hGID/CTLH complex enrichment in peptide pull-down (hGID/CTLH complex): also enriched
H-AVPIAQKSEPFKKK-K(Biotin)-NH2 [DIABLO Nt-free biotinylated peptide, reference compound]	levels that were comparable	preferential binding partners	–
H-AVPSPPPASPKK-K(Biotin) [HTRA2 Nt-free biotinylated peptide, reference compound]	–	preferential binding partners	–
H-MAVPAALILREKK-K(Biotin) [Met-COMMD10 Nt-free biotinylated peptide]	–	did not enrich IAPs	–
H-MDDDIAALVVKKK-PEG-(Biotin) [ACTB Nt-free biotinylated peptide]	–	did not enrich IAPs	–
H-MEELIVELRLKKK-PEG-(Biotin) [AFAP1 Nt-free biotinylated peptide]	–	did not enrich IAPs	–
